In brackets after ≈: the same amount, converted by molar mass.
What was measured:
[1] = target: T1, Cystic fibrosis transmembrane conductance regulator (Homo sapiens, UniProt P13569, F508DEL); test: Activation of CFTR F508del mutant (unknown origin)
[2] = Intrinsic clearance in mouse liver microsomes by HPLC-MS/MS analysis; format: ADME, Microsome; conditions: read-out: CLH (converted)
[3] = Intrinsic clearance in rat liver microsomes by HPLC-MS/MS analysis; format: ADME, Microsome; conditions: read-out: CLH (converted)
[4] = Clearance in rat liver microsomes by LC-MS/MS analysis; format: ADME, Microsome
[5] = target: T2, Nuclear receptor subfamily 1 group I member 2 (Homo sapiens, UniProt O75469); test: Activation of PXR (unknown origin) at 10 uM relative to rifampicin
T2 sequence (O75469 whole entry): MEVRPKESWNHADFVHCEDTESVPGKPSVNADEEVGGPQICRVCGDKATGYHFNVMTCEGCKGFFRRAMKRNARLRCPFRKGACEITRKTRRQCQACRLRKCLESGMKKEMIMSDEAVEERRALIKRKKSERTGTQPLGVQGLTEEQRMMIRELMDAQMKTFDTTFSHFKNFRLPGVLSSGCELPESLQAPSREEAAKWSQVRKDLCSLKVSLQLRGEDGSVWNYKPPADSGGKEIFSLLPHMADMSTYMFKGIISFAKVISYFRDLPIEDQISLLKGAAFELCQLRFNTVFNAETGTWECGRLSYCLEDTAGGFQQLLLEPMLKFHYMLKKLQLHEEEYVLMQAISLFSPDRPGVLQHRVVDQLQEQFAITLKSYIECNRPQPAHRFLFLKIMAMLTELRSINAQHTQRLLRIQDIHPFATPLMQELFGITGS

[6] = Volume of distribution at steady state in rat at 3 mg/kg, iv measured for 24 hrs by LC-MS/MS analysis; format: ADME, organism-based; conditions: in vivo, read-out: Vdss
[7] = Half life in rat at 3 mg/kg, iv measured for 24 hrs by LC-MS/MS analysis; format: ADME, organism-based; conditions: in vivo
[8] = Solubility of compound at pH 6.8 incubated for 12 hrs by HPLC analysis; format: physicochemical; conditions: buffer
[9] = Metabolic stability in rat liver microsomes assessed as intrinsic clearance; format: ADME, Microsome
[10] = target: T1, Cystic fibrosis transmembrane conductance regulator; test: Potentiation of CFTR F508del mutant (unknown origin)
[11] = Oral bioavailability in rat; format: ADME, organism-based; conditions: in vivo
[12] = target: T1, Cystic fibrosis transmembrane conductance regulator; test: Potentiation of CFTR F508del mutant (unknown origin) expressed in NIH3T3 cells; format: cell-based
[13] = target: T3, PXR (nuclear receptor subfamily 1 group I member 2) (Homo sapiens, UniProt O75469); test: Activation of PXR (unknown origin) at 10 uM relative to control; conditions: read-out: Activity
T3 sequence (O75469 whole entry): T2 sequence (O75469 whole entry)

[14] = Apparent permeability across apical to basolateral side in MDCK cells; format: ADME, cell-based, Canis lupus familiaris; conditions: dog
[15] = AUC in rat at 3 mg/kg, po; conditions: in vivo

T1 sequence (P13569 as listed by the source): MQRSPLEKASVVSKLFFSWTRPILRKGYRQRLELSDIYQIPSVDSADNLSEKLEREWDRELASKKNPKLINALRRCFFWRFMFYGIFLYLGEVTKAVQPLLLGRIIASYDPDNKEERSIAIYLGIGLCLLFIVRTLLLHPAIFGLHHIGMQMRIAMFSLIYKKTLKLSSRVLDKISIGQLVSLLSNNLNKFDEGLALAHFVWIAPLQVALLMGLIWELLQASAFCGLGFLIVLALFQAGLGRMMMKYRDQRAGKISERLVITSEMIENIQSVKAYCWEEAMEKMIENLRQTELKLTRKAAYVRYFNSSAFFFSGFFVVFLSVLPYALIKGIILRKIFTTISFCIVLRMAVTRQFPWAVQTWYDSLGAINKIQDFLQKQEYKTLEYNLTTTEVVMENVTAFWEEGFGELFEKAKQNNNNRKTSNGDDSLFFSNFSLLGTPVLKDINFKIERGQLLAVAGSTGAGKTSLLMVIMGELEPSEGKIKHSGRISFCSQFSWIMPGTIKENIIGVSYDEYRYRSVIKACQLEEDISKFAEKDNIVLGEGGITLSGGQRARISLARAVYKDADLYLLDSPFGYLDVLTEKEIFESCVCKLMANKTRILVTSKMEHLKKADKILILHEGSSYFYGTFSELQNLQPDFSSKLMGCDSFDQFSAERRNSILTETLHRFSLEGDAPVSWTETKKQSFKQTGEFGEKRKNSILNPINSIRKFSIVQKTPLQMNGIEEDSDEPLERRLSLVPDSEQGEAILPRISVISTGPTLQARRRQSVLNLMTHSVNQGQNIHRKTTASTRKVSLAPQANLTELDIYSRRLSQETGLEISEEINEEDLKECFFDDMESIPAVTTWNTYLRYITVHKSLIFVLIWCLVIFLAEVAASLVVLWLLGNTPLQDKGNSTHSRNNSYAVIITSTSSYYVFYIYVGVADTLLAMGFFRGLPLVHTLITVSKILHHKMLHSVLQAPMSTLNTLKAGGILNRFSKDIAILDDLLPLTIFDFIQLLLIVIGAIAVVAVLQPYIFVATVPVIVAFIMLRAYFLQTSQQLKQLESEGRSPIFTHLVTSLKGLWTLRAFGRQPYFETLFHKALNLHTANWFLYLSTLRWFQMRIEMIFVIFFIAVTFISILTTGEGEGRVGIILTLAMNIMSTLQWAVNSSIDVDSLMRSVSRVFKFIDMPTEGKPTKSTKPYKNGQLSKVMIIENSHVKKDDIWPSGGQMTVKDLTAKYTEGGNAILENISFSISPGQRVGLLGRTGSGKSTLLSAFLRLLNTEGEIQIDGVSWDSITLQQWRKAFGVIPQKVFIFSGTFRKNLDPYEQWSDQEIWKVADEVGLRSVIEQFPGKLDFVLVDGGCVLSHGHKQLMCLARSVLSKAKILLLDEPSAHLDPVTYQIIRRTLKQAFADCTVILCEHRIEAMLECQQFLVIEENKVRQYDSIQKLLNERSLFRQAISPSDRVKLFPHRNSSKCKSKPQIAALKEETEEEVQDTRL

With `COc1ccc(Br)c2c1CCCC2C(=O)NS(=O)(=O)c1cccc2ccccc12` (configuration not stated) the EC50 [1] was < 3000 nM.
In the case of `CCc1ccccc1-c1nc(NS(=O)(=O)c2cccc(N(CC)CCCC(=O)O)n2)ccc1C(F)(F)F`, the EC50 [1] is reported as 4 nM.
With `Cc1ccc(-c2cccc(C(F)(F)F)c2)c(OC2(C(=O)NS(=O)(=O)c3cccc(N4CCC(N)(C(F)(F)F)CC4)n3)CC2)c1` the EC50 [1] was 80 nM.
`Cc1ccc(F)cc1-c1nc(NS(=O)(=O)c2cccc(N3CCC[C@@](C)(CC(=O)O)C3)n2)ccc1C(F)(F)F` showed an EC50 [1] of 2 nM.
For `COc1ccc(C2CCC2)c2c1C(C(=O)NS(=O)(=O)c1cccc3ccccc13)C2` (configuration not stated), the EC50 [1] was < 3000 nM.
Work on `CC(C)(CN1CCCCCc2ccccc2-c2nc(ccc2C(F)(F)F)NS(=O)(=O)c2cccc1n2)C(=O)O` yielded an EC50 [1] of 4 nM.
`CC(O)CNC(=O)c1ncc(S(=O)(=O)N2CCC(OC(F)(F)F)CC2)cc1N` (configuration not stated) showed an EC50 [1] of 5 nM, a CLint scaled [2] of 300 mL/min/kg and a CLint scaled [3] of 133 mL/min/kg. It also gave a CLH [4] of 31.7 mL/min/kg, an Activity [5] of 80% and a Vd [6] of 3.2 L/kg. For the same molecule, the half-life [7] was 1.3 h.
Molecule `Nc1cc(S(=O)(=O)c2ccc(C(F)(F)F)cc2)cnc1-c1nnc(CO)o1` has an EC50 [1] of 1.6 nM.
`Nc1cc(S(=O)(=O)c2ccc(OC(F)(F)F)cc2)cnc1-c1nnc([C@@H](O)c2ccccc2)o1` gave an EC50 [1] of 1.1 nM.
`CC(C)(CO)CN1CCCCCc2ccccc2-c2nc(ccc2C(F)(F)F)NS(=O)(=O)c2cccc1n2` showed an EC50 [1] of 3 nM.
Molecule `CNC(=O)c1nc(-c2ccco2)c(C(F)(F)F)cc1N` has a solubility at 12 h [8] of 40 µg/mL (≈ 140 µM), a CLint [9] of 205 µL/min/mg and an EC50 [10] of 1860 nM.
For `COC(=O)c1nc(I)c(C(F)(F)F)cc1N`, the solubility at 12 h [8] was 13 µg/mL (≈ 37.6 µM), the CLint [9] was 342 µL/min/mg and the EC50 [10] was 360 nM.
Work on `Cc1nn(-c2ccc(F)cc2)c2nc(C(=O)NS(C)(=O)=O)cc(-c3ccc(N4CCOCC4)cc3)c12` yielded an EC50 [1] of 1260 nM.
Work on `Cc1nn(C)cc1S(=O)(=O)NC(=O)c1ccc(-n2ccc(OCC3(C(F)(F)F)CCC3)n2)nc1N1C[C@@H](C)CC1(C)C` yielded a bioavailability [11] of 66%, an EC50 [12] of 130 nM and an activity at 10 µM [13] of 3%. For the same molecule, the Papp A→B [14] was 2.7 ×10⁻⁶ cm/s.
`Cc1nn(C)cc1S(=O)(=O)NC(=O)c1ccc(-n2ccc(OCCC3(C(F)(F)F)CC3)n2)nc1N1C[C@@H](C)CC1(C)C` gave a bioavailability [11] of 65%, an EC50 [12] of 130 nM and an activity at 10 µM [13] of 4%. The Papp A→B [14] was 11.7 ×10⁻⁶ cm/s.
For `CC(C)(CO)CN1CCCCCCc2ccccc2-c2nc(ccc2C(F)(F)F)NS(=O)(=O)c2cccc1n2`, the EC50 [1] was 10 nM.
`Cc1ccccc1-c1nc(NS(=O)(=O)c2cccc(N3CCC[C@H](CC(=O)O)C3)n2)ccc1C(F)(F)F` gave an EC50 [1] of 100 nM.
Molecule `CC(C)(CN1CCCCCCc2ccccc2-c2nc(ccc2C(F)(F)F)NS(=O)(=O)c2cccc1n2)C(=O)O` has an EC50 [1] of 80 nM.
In the case of `Cc1ccc(C2CCCCCC2)c(OC2(C(=O)NS(=O)(=O)c3cccc(N)n3)CC2)c1`, the EC50 [1] is reported as 2 nM.
In the case of `Nc1cc(S(=O)(=O)c2ccc(OC(F)(F)F)cc2)cnc1-c1nnc(C(O)C(F)(F)F)o1` (configuration not stated), the EC50 [1] is reported as 5.8 nM.
For `Cc1c(S(=O)(=O)NC(=O)c2ccc(-n3ccc(OCC(C)(C)C(F)(F)F)n3)nc2N2C[C@@H](C)CC2(C)C)cnn1C`, the EC50 [12] was 170 nM, the activity at 10 µM [13] was 3% and the Papp A→B [14] was 3.8 ×10⁻⁶ cm/s.
In the case of `CCOc1ccc(CC)cc1[C@]1(C(=O)NS(=O)(=O)c2cccc3nc(C)ccc23)CCCO1`, the EC50 [1] is reported as > 300 nM.
Work on `COc1ccc(C)cc1[C@]1(C(=O)NS(=O)(=O)c2cccc3nc(C)ccc23)C[C@@H]1c1cnc(C(C)C)cn1` yielded an EC50 [1] of 30 nM.
In the case of `COc1ncc(C2CCC2)cc1C1(C(=O)NS(=O)(=O)c2cccc3c2CCCN3)CC1`, the EC50 [1] is reported as < 3000 nM.
Molecule `COc1ccc(C)cc1[C@]1(C(=O)NS(=O)(=O)c2cccc3nc(C)ccc23)C[C@@H]1c1cccc(C(F)(F)F)c1` (racemic) has an EC50 [1] of 5 nM.
`C[C@@H]1CN(c2nc(-n3ccc(OCCC4(C(F)(F)F)CC4)n3)ccc2C(=O)NS(=O)(=O)c2ccccc2)C(C)(C)C1` [BAMOCAFTOR] gave an EC50 [1] of 30 nM, an Activity [5] of 3% and an AUC [15] of 21000 ng·h/mL.
`Cc1nn(C)cc1S(=O)(=O)NC(=O)c1ccc(-n2ccc(OCC(C)(C)C(F)(F)F)n2)nc1N1C[C@@H](C)CC1(C)C` [ELEXACAFTOR] gave a bioavailability [11] of 83%, an EC50 [12] of 70 nM and an activity at 10 µM [13] of 2%. The Papp A→B [14] was 4.5 ×10⁻⁶ cm/s.
With `Nc1cc(S(=O)(=O)c2ccc(OC(F)(F)F)cc2)cnc1-c1nnc(CO)o1` [NAVOCAFTOR] the EC50 [1] was 5.6 nM.
With `COc1ccc(C)cc1[C@@]1(C(=O)NS(=O)(=O)c2cccc3nc(C)ccc23)C[C@H](c2ccccc2)CO1` [RISELCAFTOR] the EC50 [1] was 10 nM.

Source: ChEMBL document CHEMBL6121060, “Discovery and Development of CFTR Modulators for the Treatment of Cystic Fibrosis” (J Med Chem, 2025)
